Laboratory results as given in PubChem BioAssay AID1963981 (Molecular Pharmacology Branch, DTP, NCI, 2024).

Tested on: 354836-022-R-J1-PDC multicell spheroid viability
Test: Anticancer human tumor 354836-022-R-J1-PDC patient-derived head and neck squamous cell carcinoma cell line growth inhibition [PI3K]
Details: for IC50: curve of first compound; for viability, T/C: stronger effect = lower value; active means viability on the fitted dose curve at most 10% of control; inactive means the rest
Method in brief: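 Three cell types, namely tumor cells, endothelial cells and mesenchymal stem cells, formed each spheroid. Combinations with four PI3K inhibitors were screened at clinically achievable concentrations decreasing by half-log, and spheroid viability was recorded.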
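Further: spheroids exposed to agents for seven days before the viability read.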

CNC(=O)c1ccc(N2C(=S)N(c3ccc(C#N)c(C(F)(F)F)c3)C(=O)C2(C)C)cc1F + Cc1nc(NC(=O)N2CCCC2C(N)=O)sc1-c1ccnc(C(C)(C)C(F)(F)F)c1
inactive: viability, T/C (second compound 0.0316 µM, first compound 0.0316 µM) 108% | viability, T/C (second compound 0.0316 µM, first compound 0.1 µM) 92.4% | viability, T/C (second compound 0.0316 µM, first compound 0.316 µM) 100% | viability, T/C (second compound 0.0316 µM, first compound 1 µM) 96% | viability, T/C (second compound 0.0316 µM, first compound 3.16 µM) 123% | viability, T/C (second compound 0.0316 µM, first compound 10 µM) 108% | viability, T/C (second compound 0.1 µM, first compound 0.0316 µM) 95.5% | viability, T/C (second compound 0.1 µM, first compound 0.1 µM) 93.4% | viability, T/C (second compound 0.1 µM, first compound 0.316 µM) 111% | viability, T/C (second compound 0.1 µM, first compound 1 µM) 87.9% | viability, T/C (second compound 0.1 µM, first compound 3.16 µM) 109% | viability, T/C (second compound 0.1 µM, first compound 10 µM) 99.2% | viability, T/C (second compound 0.316 µM, first compound 0.0316 µM) 86.8% | viability, T/C (second compound 0.316 µM, first compound 0.1 µM) 99.6% | viability, T/C (second compound 0.316 µM, first compound 0.316 µM) 89.1% | viability, T/C (second compound 0.316 µM, first compound 1 µM) 96.7% | viability, T/C (second compound 0.316 µM, first compound 3.16 µM) 98.2% | viability, T/C (second compound 0.316 µM, first compound 10 µM) 88% | viability, T/C (second compound 1 µM, first compound 0.0316 µM) 93.5% | viability, T/C (second compound 1 µM, first compound 0.1 µM) 84.5% | viability, T/C (second compound 1 µM, first compound 0.316 µM) 76.3% | viability, T/C (second compound 1 µM, first compound 1 µM) 98.7% | viability, T/C (second compound 1 µM, first compound 3.16 µM) 87% | viability, T/C (second compound 1 µM, first compound 10 µM) 82.4% | viability, T/C (second compound 3.16 µM, first compound 0.0316 µM) 54.5% | viability, T/C (second compound 3.16 µM, first compound 0.1 µM) 71.1% | viability, T/C (second compound 3.16 µM, first compound 0.316 µM) 63.3% | viability, T/C (second compound 3.16 µM, first compound 1 µM) 71.3% | viability, T/C (second compound 3.16 µM, first compound 3.16 µM) 68% | viability, T/C (second compound 3.16 µM, first compound 10 µM) 72.1% | viability, T/C (second compound 10 µM, first compound 0.0316 µM) 35.1% | viability, T/C (second compound 10 µM, first compound 0.1 µM) 35% | viability, T/C (second compound 10 µM, first compound 0.316 µM) 35.7% | viability, T/C (second compound 10 µM, first compound 1 µM) 39.8% | viability, T/C (second compound 10 µM, first compound 3.16 µM) 48.9% | viability, T/C (second compound 10 µM, first compound 10 µM) 37.5%
> 10 µM: IC50 (second compound 0.0316 µM) | IC50 (second compound 0.1 µM) | IC50 (second compound 0.316 µM) | IC50 (second compound 1 µM) | IC50 (second compound 3.16 µM)
< 0.0316 µM: IC50 (second compound 10 µM)

Cn1cnc2c(F)c(Nc3ccc(Br)cc3Cl)c(C(=O)NOCCO)cc21 + Cc1nc(NC(=O)N2CCCC2C(N)=O)sc1-c1ccnc(C(C)(C)C(F)(F)F)c1
> 3 µM: IC50 (second compound 0.0316 µM) | IC50 (second compound 0.1 µM) | IC50 (second compound 0.316 µM) | IC50 (second compound 1 µM)
1.1 µM: IC50 (second compound 3.16 µM)
< 0.00949 µM: IC50 (second compound 10 µM)
inactive: viability, T/C (second compound 0.0316 µM, first compound 0.00949 µM) 85.6% | viability, T/C (second compound 0.0316 µM, first compound 0.03 µM) 82.2% | viability, T/C (second compound 0.0316 µM, first compound 0.0949 µM) 90.7% | viability, T/C (second compound 0.0316 µM, first compound 0.3 µM) 64.6% | viability, T/C (second compound 0.0316 µM, first compound 0.949 µM) 73.7% | viability, T/C (second compound 0.0316 µM, first compound 3 µM) 54.3% | viability, T/C (second compound 0.1 µM, first compound 0.00949 µM) 96.5% | viability, T/C (second compound 0.1 µM, first compound 0.03 µM) 83.1% | viability, T/C (second compound 0.1 µM, first compound 0.0949 µM) 82.9% | viability, T/C (second compound 0.1 µM, first compound 0.3 µM) 76.3% | viability, T/C (second compound 0.1 µM, first compound 0.949 µM) 70.4% | viability, T/C (second compound 0.1 µM, first compound 3 µM) 54.4% | viability, T/C (second compound 0.316 µM, first compound 0.00949 µM) 79.3% | viability, T/C (second compound 0.316 µM, first compound 0.03 µM) 86.2% | viability, T/C (second compound 0.316 µM, first compound 0.0949 µM) 80.5% | viability, T/C (second compound 0.316 µM, first compound 0.3 µM) 78.2% | viability, T/C (second compound 0.316 µM, first compound 0.949 µM) 75.6% | viability, T/C (second compound 0.316 µM, first compound 3 µM) 55.7% | viability, T/C (second compound 1 µM, first compound 0.00949 µM) 71.7% | viability, T/C (second compound 1 µM, first compound 0.03 µM) 75.2% | viability, T/C (second compound 1 µM, first compound 0.0949 µM) 78% | viability, T/C (second compound 1 µM, first compound 0.3 µM) 58.6% | viability, T/C (second compound 1 µM, first compound 0.949 µM) 63.3% | viability, T/C (second compound 1 µM, first compound 3 µM) 52% | viability, T/C (second compound 3.16 µM, first compound 0.00949 µM) 49.1% | viability, T/C (second compound 3.16 µM, first compound 0.03 µM) 58.1% | viability, T/C (second compound 3.16 µM, first compound 0.0949 µM) 55.8% | viability, T/C (second compound 3.16 µM, first compound 0.3 µM) 46% | viability, T/C (second compound 3.16 µM, first compound 0.949 µM) 54.8% | viability, T/C (second compound 3.16 µM, first compound 3 µM) 31.7% | viability, T/C (second compound 10 µM, first compound 0.00949 µM) 33% | viability, T/C (second compound 10 µM, first compound 0.03 µM) 29.7% | viability, T/C (second compound 10 µM, first compound 0.0949 µM) 30% | viability, T/C (second compound 10 µM, first compound 0.3 µM) 30.4% | viability, T/C (second compound 10 µM, first compound 0.949 µM) 25% | viability, T/C (second compound 10 µM, first compound 3 µM) 12.6%
